Source: patent US20100119483A1, “PEPTIDE VIRAL ENTRY INHIBITORS” (Schering Corporation, priority 2004, published 2010)
Where “and” joins values, the source holds several entries; their conditions need not be identical. Identical values can stand only once.

Experiments:
HCVpp = assay: Wash off study, HCVpp entry under conditions A-D at 37° C. or 4° C.; type: cell-based, hepatitis C virus; conditions: for luciferase units: 37° C.; for luciferase units observed in the entry assay: 4° C., listed as V-2b
Procedure: To identify if the peptides of the invention bind to the cells and therefore inhibit entry, anti-CD81 antibody or peptide (SEQ ID NO: 77) was tested at four conditions: • (A) peptide or anti-CD81 antibody was pre-incubated with cells and virus separately, cells were washed and virus together with peptide was added; • (B) peptide or anti-CD81 antibody was pre-incubated with virus only first and then virus together with peptide was added to the cells; • (C) peptide or anti-CD81 antibody was preincubated with cells only and washed off, and then virus was added; and • (D) same as C except that virus was washed off after 1 hour of incubation.
The majority of difference seen before the 4-hour time-point is in line with the model wherein most of the entry events occur during the first four hours (data not shown). As expected, the RLU signal was reduced at earlier time points and lead to higher variation of the assay. […] In anticipating similar phenomena might exist with the peptide, we applied the one hour virus incubation in the following studies. In tables 19-22, condition D was identical to condition C except that virus was removed after 1 hour of incubation. […] Anti-CD81 antibody binds to CD81 expressed on the cells and therefore blocks HCVpp entry.
The data in tables 19 and 20 were generated in assays conducted at 37° C. The date generated in tables 21 and 22 were generated in assays conducted at 4° C. The numbers in each table (19-22) represent the luciferase units observed in the entry assay under each indicated condition.

HCV pseudoparticles [1] = assay: Fusion/attachment experiments with HCV pseudoparticles (4° C. attachment, 37° C. entry); type: cell-based, hepatitis C virus; conditions: for RLU: single replicates, listed as V-2b
Procedure: The entry process was allowed to complete after the cells were washed and incubated at 37° C. for 72 hours. If the peptide blocked or interfered with the attachment, few HCVpp particles should bind to the cells and lead to reduced luciferase signal. The peptide had approximately 50% inhibition whereas the anti-CD81 antibody inhibited entry by 20%. Alternatively, an explanation could be that the cell-associated peptide or antibody had no effects on virus attachment, but rather inhibit post-attachment steps, e.g. fusion. When we allowed the HCV pseudoparticles to attach first at 4° C., a nonpermissive temperature for fusion, and added the peptide or anti-CD81 antibody when post-attachment events occurred, anti-CD81 antibody almost inhibited entry by 100%, whereas, the peptide inhibited by approximately 80%.
The incubation scheme for the fusion/attachment experiments is summarized as follows: […]

HCV pseudoparticles [2] = assay: HCV pseudoparticle entry assay, anti-CD81 antibody and peptide titrated in a 96-well matrix; type: cell-based, hepatitis C virus; conditions: HCV entry inhibition, combination
Procedure: The anti-CD81 antibody and the peptide were titrated in duplicates in a 96-well formatted matrix and tested in an HCV pseudoparticle entry assay. The assays were carried out essentially as described above.
Dose response curves of anti-CD81 antibody with various amounts of peptide were plotted vs. RLU, and the results are summarized below. […] When the peptide was present at 10-30% of its IC50 concentration, the IC50 for anti-CD81 was reduced by 3 to 6-fold. Similarly, when the peptide was present at 1% to 25% of its IC75 concentration, the IC75 for the anti-CD81 antibody was reduced by 3 to 9 fold. Thus, the peptide enhances the potency of the anti-CD81 antibody.

[3] = system: amphotropic murine leukemia virus; assay: AMLV pseudotyped virus entry counter-screen, same infection protocol; type: cell-based; conditions: peptide library screen; cell entry inhibition vs uninhibited control
How it was run: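 Huh7 hepatoma cells pre-incubated with peptide 1 h at 37 °C, then infected with AMLV pseudotyped virus and cultured 72 h at 37 °C, 5% CO2 before luciferase read-out. Peptides screened at 100 ug/ml, then 10-point 3-fold titrations from 100 ug/ml.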

[4] = peptide 0.0457 ug/ml, condition A
[5] = peptide 0.0457 ug/ml, condition B
[6] = peptide 0.0457 ug/ml, condition C
[7] = peptide 0.1372 ug/ml, condition A
[8] = peptide 0.1372 ug/ml, condition B
[9] = peptide 0.1372 ug/ml, condition C
[10] = peptide 0.4115 ug/ml, condition A
[11] = peptide 0.4115 ug/ml, condition B
[12] = peptide 0.4115 ug/ml, condition C
[13] = peptide 1.2346 ug/ml, condition A
[14] = peptide 1.2346 ug/ml, condition B
[15] = peptide 1.2346 ug/ml, condition C
[16] = peptide 3.7037 ug/ml, condition A
[17] = peptide 3.7037 ug/ml, condition B
[18] = peptide 3.7037 ug/ml, condition C
[19] = peptide 11.1111 ug/ml, condition A
[20] = peptide 11.1111 ug/ml, condition C
[21] = peptide 33.3333 ug/ml, condition A
[22] = peptide 33.3333 ug/ml, condition B
[23] = peptide 33.3333 ug/ml, condition C
[24] = A + P (attachment + post attachment)

## V-S-F-A-I-K-W-E-Y-V-L-L-L-F-L-L [SEQ ID NO: 77]
HCVpp; peptide 0.0046 ug/ml (two lines), condition A
  luciferase units: 74772 luciferase units and 76125 luciferase units and 57485 luciferase units and 58523 luciferase units
HCVpp; peptide 0.0046 ug/ml (two lines), condition B
  luciferase units: 65028 luciferase units and 60343 luciferase units and 57349 luciferase units and 51858 luciferase units
HCVpp; peptide 0.0046 ug/ml (two lines), condition C
  luciferase units: 40529 luciferase units and 45271 luciferase units and 37116 luciferase units and 32831 luciferase units
HCVpp; [4]
  luciferase units: 50460 luciferase units and 53231 luciferase units
  luciferase units observed in the entry assay: 7498 luciferase units and 7299 luciferase units
HCVpp; [5]
  luciferase units: 47929 luciferase units and 53377 luciferase units
  luciferase units observed in the entry assay: 6703 luciferase units and 9954 luciferase units
HCVpp; [6]
  luciferase units: 36956 luciferase units and 46680 luciferase units
  luciferase units observed in the entry assay: 16101 luciferase units and 13757 luciferase units
HCVpp; peptide 0.0457 ug/ml, condition D
  luciferase units: 3531 luciferase units and 2785 luciferase units
HCVpp; [7]
  luciferase units: 44159 luciferase units and 41959 luciferase units
  luciferase units observed in the entry assay: 5745 luciferase units and 7826 luciferase units
HCVpp; [8]
  luciferase units: 43468 luciferase units and 36136 luciferase units
  luciferase units observed in the entry assay: 7670 luciferase units and 6880 luciferase units
HCVpp; [9]
  luciferase units: 34241 luciferase units and 44163 luciferase units
  luciferase units observed in the entry assay: 9444 luciferase units and 10124 luciferase units
HCVpp; peptide 0.1372 ug/ml, condition D
  luciferase units: 2443 luciferase units and 4834 luciferase units
HCVpp; [10]
  luciferase units: 28106 luciferase units and 25559 luciferase units
  luciferase units observed in the entry assay: 5517 luciferase units and 5574 luciferase units
HCVpp; [11]
  luciferase units: 26979 luciferase units and 31819 luciferase units
  luciferase units observed in the entry assay: 4724 luciferase units and 3648 luciferase units
HCVpp; [12]
  luciferase units: 40225 luciferase units and 43467 luciferase units
  luciferase units observed in the entry assay: 9027 luciferase units and 11381 luciferase units
HCVpp; peptide 0.4115 ug/ml, condition D
  luciferase units: 3257 luciferase units and 2555 luciferase units
HCVpp; [13]
  luciferase units: 21301 luciferase units and 21733 luciferase units
  luciferase units observed in the entry assay: 3584 luciferase units and 5974 luciferase units
HCVpp; [14]
  luciferase units: 25204 luciferase units and 14452 luciferase units
  luciferase units observed in the entry assay: 5542 luciferase units and 4382 luciferase units
HCVpp; [15]
  luciferase units: 36450 luciferase units and 40467 luciferase units
  luciferase units observed in the entry assay: 6131 luciferase units and 6853 luciferase units
HCVpp; [16]
  luciferase units: 15025 luciferase units and 10613 luciferase units
  luciferase units observed in the entry assay: 2824 luciferase units and 3255 luciferase units
HCVpp; [17]
  luciferase units: 15213 luciferase units and 12233 luciferase units
  luciferase units observed in the entry assay: 3059 luciferase units and 3424 luciferase units
HCVpp; [18]
  luciferase units: 31857 luciferase units and 32265 luciferase units
  luciferase units observed in the entry assay: 9414 luciferase units and 8570 luciferase units
HCVpp; peptide 3.7037 ug/ml, condition D
  luciferase units: 2974 luciferase units and 3707 luciferase units
HCVpp; [19]
  luciferase units: 12402 luciferase units and 6768 luciferase units
  luciferase units observed in the entry assay: 2833 luciferase units and 2954 luciferase units
HCVpp; peptide 11.1111 ug/ml, condition B
  luciferase units: 10212 luciferase units and 6902 luciferase units
HCVpp; [20]
  luciferase units: 28818 luciferase units and 33022 luciferase units
  luciferase units observed in the entry assay: 7352 luciferase units and 4725 luciferase units
HCVpp; peptide 11.1111 ug/ml, condition D
  luciferase units: 3302 luciferase units and 3259 luciferase units
HCVpp; [21]
  luciferase units: 6467 luciferase units and 6356 luciferase units
  luciferase units observed in the entry assay: 1677 luciferase units and 2383 luciferase units
HCVpp; [22]
  luciferase units: 7146 luciferase units and 4501 luciferase units
  luciferase units observed in the entry assay: 2900 luciferase units and 1914 luciferase units
HCVpp; [23]
  luciferase units: 23383 luciferase units and 19309 luciferase units
  luciferase units observed in the entry assay: 8294 luciferase units and 8104 luciferase units
HCVpp; peptide 33.3333 ug/ml, condition D
  luciferase units: 2351 luciferase units and 2058 luciferase units
HCVpp; peptide 100.0000 ug/ml, condition A (pre-incubated with cells and virus separately, cells washed)
  luciferase units: 9216 luciferase units and 7419 luciferase units
HCVpp; peptide 100.0000 ug/ml, condition B (pre-incubated with virus only)
  luciferase units: 8074 luciferase units and 4093 luciferase units
HCVpp; peptide 100.0000 ug/ml, condition C (pre-incubated with cells only, washed off)
  luciferase units: 19088 luciferase units and 14073 luciferase units
HCVpp; peptide 100.0000 ug/ml, condition D (as C, virus washed off after 1 hour)
  luciferase units: 780 luciferase units and 1531 luciferase units
HCVpp; peptide 0.0046 ug/ml, condition A
  luciferase units observed in the entry assay: 22435 luciferase units and 18765 luciferase units and 17613 luciferase units and 22306 luciferase units
HCVpp; peptide 0.0046 ug/ml, condition B
  luciferase units observed in the entry assay: 26860 luciferase units and 23215 luciferase units and 23633 luciferase units and 21213 luciferase units
HCVpp; peptide 0.0046 ug/ml, condition C
  luciferase units observed in the entry assay: 13903 luciferase units and 13795 luciferase units and 14095 luciferase units and 10535 luciferase units
HCVpp; peptide 100 ug/ml, condition A
  luciferase units observed in the entry assay: 1924 luciferase units and 1845 luciferase units
HCVpp; peptide 100 ug/ml, condition C
  luciferase units observed in the entry assay: 5118 luciferase units and 8821 luciferase units
HCVpp; pre-incubated with cells at 37° C. and 4° C.
  inhibition compared to anti-CD81 antibody in the wash-off experiment: more inhibition
HCVpp; pre-incubated with cells only and washed off, then virus added
  inhibition at condition C: little inhibition
HCV pseudoparticles [1]
  step of HCVpp entry inhibited: largely inhibits a post-attachment step
HCV pseudoparticles [1]; A (attachment)
  % control peptide: 39 % control
  RLU average (peptide): 5942 RLU
  RLU: 5196 RLU and 7987 RLU and 4644 RLU
HCV pseudoparticles [1]; [24]
  % control peptide: 6 % control
  RLU average (peptide): 863 RLU
  RLU: 527 RLU and 1541 RLU and 520 RLU
HCV pseudoparticles [1]; HCV pseudoparticles attached first at 4° C., substance added when post-attachment events occurred
  inhibition of entry: approximately 80%
HCV pseudoparticles [1]; P (post attachment)
  % control peptide: 11 % control
  RLU average (peptide): 1647 RLU
  RLU: 1984 RLU and 2412 RLU and 545 RLU
HCV pseudoparticles [1]; pre-incubated with cells at 4° C., then HCV pseudoparticles at 4° C., washed, 37° C. for 72 hours (attachment)
  inhibition of entry: approximately 50%
HCV pseudoparticles [2]
  effect of the peptide on potency of anti-CD81 antibody: enhance the potency of an anti-CD81 antibody
[3]
  AMLVpp % inh: 3%
